Experimental data as given in ChEMBL document CHEMBL1201862, “PubChem BioAssay data set” (2004).
“And” between values parts separate entries of the source, which are not always exact repeats. Equal values may be shown once.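 Values below derive from 48-hour exposures of cells grown in 96-well plates, with endpoints linearly interpolated between the two concentrations bracketing the appropriate inhibition level. The concentration for 50% growth inhibition is given as GI50.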 The source made the active and inactive calls. Rule as the data show it: active = GI50 up to about 1.1 µM and inactive = higher.

Columns and labels:
Assay in all cases: NCI anticancer screen, dose series, 48 h
TK-10 = test system: TK-10
SK-MEL-28 = test system: SK-MEL-28
OVCAR-3 = test system: OVCAR-3
SF-268 = test system: SF-268
OVCAR-8 = test system: OVCAR-8
EKVX = test system: EKVX
COLO 205 = test system: COLO 205
HT-29 = test system: HT-29
SK-OV-3 = test system: SK-OV-3
IGROV-1 = test system: IGROV-1
HL-60 = test system: HL-60
RPMI-8226 = test system: RPMI-8226
786-0 = test system: 786-0
SW-620 = test system: SW-620
NCI-H226 = test system: NCI-H226
NCI-H522 = test system: NCI-H522
ACHN = test system: ACHN
HCT-15 = test system: HCT-15
SR = test system: SR

## O=C(CC(=O)Nc1ccc(Cl)cc1)NNCC(=O)Nc1nc(-c2ccccc2)cs1
TK-10
  GI50: > 100 µM (inactive)
SK-MEL-28
  GI50: > 100 µM (inactive)
OVCAR-3
  GI50: > 100 µM (inactive)
SF-268
  GI50: > 100 µM (inactive)
OVCAR-8
  GI50: > 100 µM (inactive)
EKVX
  GI50: > 100 µM (inactive)
COLO 205
  GI50: > 100 µM (inactive)
HT-29
  GI50: > 100 µM (inactive)
SK-OV-3
  GI50: > 100 µM (inactive)
IGROV-1
  GI50: > 100 µM (inactive)
HL-60
  GI50: > 100 µM (inactive)
RPMI-8226
  GI50: > 100 µM (inactive)
786-0
  GI50: > 100 µM (inactive)
SW-620
  GI50: > 100 µM (inactive)
NCI-H226
  GI50: > 100 µM (inactive)
NCI-H522
  GI50: > 100 µM (inactive)

## CC(C)(C)c1ccc(OC2CCO2)cc1 (centres undefined)
TK-10
  GI50: 42.4 µM (inactive)
SK-MEL-28
  GI50: 98.6 µM (inactive)
OVCAR-3
  GI50: 34.5 µM (inactive)
SF-268
  GI50: 33.6 µM (inactive)
ACHN
  GI50: 34.5 µM (inactive)
OVCAR-8
  GI50: 38.6 µM (inactive)
EKVX
  GI50: 35.1 µM (inactive)
COLO 205
  GI50: 29.4 µM (inactive)
HT-29
  GI50: 23.1 µM (inactive)
SK-OV-3
  GI50: > 100 µM (inactive)
IGROV-1
  GI50: > 100 µM (inactive)
RPMI-8226
  GI50: 22.1 µM (inactive)
786-0
  GI50: 28.7 µM (inactive)
SW-620
  GI50: 17.1 µM (inactive)
HCT-15
  GI50: 20 µM
NCI-H226
  GI50: 27.9 µM (inactive)
NCI-H522
  GI50: 23.6 µM (inactive)

## COC(=O)C1CCc2c1c(=O)n1c([nH]c3ccccc31)c2C#N (centres undefined)
TK-10
  GI50: > 100 µM (inactive)
SK-MEL-28
  GI50: > 100 µM (inactive)
OVCAR-3
  GI50: > 100 µM (inactive)
SF-268
  GI50: > 100 µM (inactive)
ACHN
  GI50: > 100 µM (inactive)
OVCAR-8
  GI50: > 100 µM (inactive)
EKVX
  GI50: > 100 µM (inactive)
COLO 205
  GI50: > 100 µM (inactive)
HT-29
  GI50: > 100 µM (inactive)
SK-OV-3
  GI50: > 100 µM (inactive)
IGROV-1
  GI50: > 100 µM (inactive)
HL-60
  GI50: > 100 µM (inactive)
RPMI-8226
  GI50: > 100 µM (inactive)
786-0
  GI50: > 100 µM (inactive)
SW-620
  GI50: > 100 µM (inactive)
HCT-15
  GI50: > 100 µM
NCI-H226
  GI50: > 100 µM (inactive)
NCI-H522
  GI50: > 100 µM (inactive)

## CC1OC(OC2C(OC(=O)[C@]34CCC(C)(C)C[C@H]3C3=CC[C@@H]5[C@@]6(C)CC[C@H](OC7OC(C(=O)O)C(O)C(O)C7O)C(C)(C)[C@@H]6CC[C@@]5(C)[C@]3(C)CC4)OCC(O)C2O)C(O)C(O)C1OC1OCC(O)C(O)C1O (some centres undefined)
SK-MEL-28
  GI50: 18.1 µM (inactive) and 24 µM (inactive)
OVCAR-3
  GI50: > 100 µM (inactive)
SF-268
  GI50: > 100 µM (inactive) and 53.2 µM (inactive)
OVCAR-8
  GI50: > 100 µM (inactive)
EKVX
  GI50: 22.3 µM (inactive) and 30.1 µM (inactive)
COLO 205
  GI50: 16.7 µM (inactive) and 17.3 µM (inactive)
HT-29
  GI50: 15.4 µM (inactive) and 28.2 µM (inactive)
SK-OV-3
  GI50: > 100 µM (inactive) and 82.8 µM (inactive)
IGROV-1
  GI50: > 100 µM (inactive)
HL-60
  GI50: 21.8 µM (inactive)
786-0
  GI50: 49.3 µM (inactive) and 65.5 µM (inactive)
HCT-15
  GI50: > 100 µM
NCI-H226
  GI50: 43.6 µM (inactive) and 43.9 µM (inactive)
NCI-H522
  GI50: 45.1 µM (inactive) and 45.5 µM (inactive)

## CCOc1ccc(/N=C(/NC(=O)c2ccccc2)SC)cc1
TK-10
  GI50: > 100 µM (inactive)
SK-MEL-28
  GI50: > 100 µM (inactive)
SR
  GI50: > 100 µM (inactive)
OVCAR-3
  GI50: > 100 µM (inactive)
SF-268
  GI50: > 100 µM (inactive)
ACHN
  GI50: > 100 µM (inactive)
OVCAR-8
  GI50: > 100 µM (inactive)
EKVX
  GI50: > 100 µM (inactive)
COLO 205
  GI50: > 100 µM (inactive)
HT-29
  GI50: > 100 µM (inactive)
SK-OV-3
  GI50: > 100 µM (inactive)
IGROV-1
  GI50: > 100 µM (inactive)
HL-60
  GI50: > 100 µM (inactive)
RPMI-8226
  GI50: > 100 µM (inactive)
786-0
  GI50: > 100 µM (inactive)
SW-620
  GI50: 43.4 µM (inactive)
HCT-15
  GI50: > 100 µM
NCI-H226
  GI50: > 100 µM (inactive)

## O=[N+]([O-])c1ccc(/C=N/C2CCCCC2)cc1
TK-10
  GI50: > 100 µM (inactive)
SK-MEL-28
  GI50: > 100 µM (inactive)
SR
  GI50: > 100 µM (inactive)
OVCAR-3
  GI50: > 100 µM (inactive)
SF-268
  GI50: > 100 µM (inactive)
ACHN
  GI50: > 100 µM (inactive)
OVCAR-8
  GI50: > 100 µM (inactive)
EKVX
  GI50: > 100 µM (inactive)
COLO 205
  GI50: > 100 µM (inactive)
HT-29
  GI50: > 100 µM (inactive)
SK-OV-3
  GI50: > 100 µM (inactive)
IGROV-1
  GI50: > 100 µM (inactive)
HL-60
  GI50: > 100 µM (inactive)
786-0
  GI50: > 100 µM (inactive)
SW-620
  GI50: > 100 µM (inactive)
HCT-15
  GI50: > 100 µM
NCI-H226
  GI50: > 100 µM (inactive)

## C#CCN(C(=O)C(F)(F)F)c1ccc(C(=O)c2ccc(N(CC#C)C(=O)C(F)(F)F)cc2)cc1
TK-10
  GI50: 48.6 µM (inactive)
SK-MEL-28
  GI50: 35.3 µM (inactive)
OVCAR-3
  GI50: 33.1 µM (inactive)
SF-268
  GI50: 38.4 µM (inactive)
ACHN
  GI50: 32.7 µM (inactive)
OVCAR-8
  GI50: 36.1 µM (inactive)
EKVX
  GI50: 61 µM (inactive)
COLO 205
  GI50: 30.8 µM (inactive)
HT-29
  GI50: 19.5 µM (inactive)
IGROV-1
  GI50: 33.1 µM (inactive)
HL-60
  GI50: 12.9 µM (inactive)
RPMI-8226
  GI50: 15.6 µM (inactive)
786-0
  GI50: 34.1 µM (inactive)
SW-620
  GI50: > 100 µM (inactive)
HCT-15
  GI50: 24.6 µM
NCI-H522
  GI50: 14.9 µM (inactive)

## Cc1ccc(C)c2sc3cc(=O)ccc-3nc12
TK-10
  GI50: 26.3 µM (inactive)
SK-MEL-28
  GI50: 43.4 µM (inactive)
SR
  GI50: 26.4 µM (inactive)
OVCAR-3
  GI50: 43.3 µM (inactive)
SF-268
  GI50: 43.5 µM (inactive)
ACHN
  GI50: 30 µM (inactive)
OVCAR-8
  GI50: 35.2 µM (inactive)
EKVX
  GI50: 37.2 µM (inactive)
COLO 205
  GI50: 63.8 µM (inactive)
HT-29
  GI50: 44 µM (inactive)
SK-OV-3
  GI50: > 100 µM (inactive)
IGROV-1
  GI50: 82 µM (inactive)
HL-60
  GI50: 10.5 µM (inactive)
786-0
  GI50: 39.2 µM (inactive)
SW-620
  GI50: 63.1 µM (inactive)
HCT-15
  GI50: 29.4 µM
NCI-H226
  GI50: 75.2 µM (inactive)
NCI-H522
  GI50: 7.83 µM (inactive)
